Test results reported in PubChem BioAssay (NCI).
Several values for one entry are separate records, joined by “and”; a condition that tells them apart may be missing. Equal values may be shown once.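 Growth conditions: 96-well plates. Treatment: test compound, 48 hours, 5 concentrations. Analysis: linear interpolation between bracketing concentrations; unreached endpoints set to highest concentration. Here, GI50 denotes the concentration required for 50% inhibition of growth. TGI marks complete inhibition of growth.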

How the values were obtained:
Experiment in all cases: NCI-60 cell line screen, 48 h
NCI-H23 lung = test system: NCI-H23 lung
M14 melanoma = test system: M14 melanoma
SK-MEL-2 melanoma = test system: SK-MEL-2 melanoma
OVCAR-8 ovarian = test system: OVCAR-8 ovarian
SNB-19 CNS = test system: SNB-19 CNS
NCI/ADR-RES ovarian = test system: NCI/ADR-RES ovarian
T-47D breast = test system: T-47D breast
SN12C renal = test system: SN12C renal
786-0 renal = test system: 786-0 renal
SK-MEL-5 melanoma = test system: SK-MEL-5 melanoma

SMILES | GI50 (NCI-H23 lung) [µM] | TGI (NCI-H23 lung) [µM] | GI50 (M14 melanoma) [µM] | TGI (M14 melanoma) [µM] | GI50 (SK-MEL-2 melanoma) [µM] | TGI (SK-MEL-2 melanoma) [µM] | GI50 (OVCAR-8 ovarian) | TGI (OVCAR-8 ovarian) [µM] | GI50 (SNB-19 CNS) | TGI (SNB-19 CNS) | GI50 (NCI/ADR-RES ovarian) [µM] | TGI (NCI/ADR-RES ovarian) [µM] | GI50 (T-47D breast) [µM] | TGI (T-47D breast) [µM] | GI50 (SN12C renal) [µM] | TGI (SN12C renal) [µM] | GI50 (786-0 renal) [µM] | TGI (786-0 renal) [µM] | GI50 (SK-MEL-5 melanoma) [µM] | TGI (SK-MEL-5 melanoma) [µM]
O=C1C=C(N2CC2)c2ccccc2C1=O | 1.84 | 7.17 | 1.63 | 3.04 | 2.28 | 4.34 | 1.46 µM | 2.86 | 1.83 µM | 3.35 µM | 1.94 | 5.83 | 1.88 | 4.17 | 1.76 | 3.22 | 1.83 | 3.28 | 1.6 | 3.04
COc1ccc2nc(-c3ccccc3)cc(Nc3ccc(/C(C)=N/O)cc3)c2c1 | 2.51 | > 20.9 | 1.46 | 2.78 | 88.4 | > 100 | 3.02 µM | > 27.5 | 5.38 µM | > 100 µM | 2.75 | > 24.6 | 6.18 | > 100 | 1.7 | 3.19 | 2.09 | 3.7 | 2.62 | 7.57
COc1ccc(/C=C/c2nc(N3CCOCC3)c3cc(F)c(F)cc3n2)cc1OC | 6.05 | > 100 | 2.75 | 26.8 | 9.48 | > 100 | 4.57 µM | > 100 | 5.2 µM | > 100 µM | 4.09 | > 100 | 1.49 | 9.72 | 5.36 | > 100 | 4.44 | > 100 | 1.18 | 2.81
COc1ccc(-c2nnc3n(C)c(=O)c4ccccc4n23)cc1O | 3.01 | > 100 | 0.127 | 25.9 | 0.14 | 37.5 | 1.52 µM | > 100 | 0.862 µM | > 64.9 µM | 0.154 | 33.9 | 2.41 | > 100 | 1.47 | > 100 | 2.57 | 28 | 0.15 | > 100
COc1ccc(N2CCN(CC(=O)N3CCN(c4nnc(-c5ccccc5)c(-c5ccccc5)n4)CC3)CC2)cc1 | 6.06 | > 100 | 17 | > 100 | 51.3 | > 100 | 35.8 µM | > 100 | > 33.6 µM | > 100 µM | 8.68 | > 100 | 2.56 | 18.5 | 8.64 | > 100 | 4.91 | > 100 | 2.32 | 6.63
COc1cc2c(cc1OCCCCCCNC(=O)c1cc3ccccc3[nH]1)N=CC1CCCN1C2=O (stereo unspecified) | 51 | > 100 | 65.5 | > 100 | – | – | 30.5 µM | > 100 | 63.1 µM | > 100 µM | 31.7 | > 100 | 15.4 | > 100 | 65 | > 100 | > 100 | > 100 | 14.2 | 32
COC(=O)C1CC2(c3ccc(C)cc3)C(c3ccc(C)cc3)=C(c3ccc(C)cc3)C1(c1ccc(C)cc1)S2=O (stereo unspecified) | > 100 | > 100 | > 100 | > 100 | > 100 | > 100 | 37.9 µM | > 100 | 36.2 µM | > 100 µM | 85.5 | > 100 | 60.4 | > 100 | > 100 | > 100 | 70.8 | > 100 | > 100 | > 100
CC12C=CC(C)(O1)C1C2c2ccccc2S1(=O)=O (stereo unspecified) | 46.6 | > 100 | 25 | > 100 | – | – | > 100 µM | > 100 | > 100 µM | > 100 µM | > 100 | > 100 | 95.5 | > 100 | 64.4 | > 100 | > 100 | > 100 | 38.7 | > 100
COc1cc2c(cc1OCCCCC(=O)Nc1ccc(-c3nc4ccccc4s3)cc1)N=C[C@@H]1CCCN1C2=O | – | – | 1.55 | 3.18 | 1.95 | 4.22 | 1.57 µM | 4.5 | 2.68 µM | 11.2 µM | 10.9 | 62.6 | 1.96 | 10.1 | 2.81 | 9.72 | 1.56 | 3.51 | 1.76 | 3.17
Cc1cc2nc3ccc(N=Nc4ccc(N(C)C)cc4)cc3n(-c3ccccc3)c-2cc1=N | 0.0253 | 0.418 | 0.0657 | 0.239 | 0.058 | 0.317 | 0.0232 µM and 0.0414 µM | – | 0.0212 µM and 0.0731 µM | 1.08 µM and 1.61 µM | 0.279 | 3.13 | 0.00296 | 0.0706 | – | – | 0.0778 | 0.505 | 0.0235 | 0.143
